Assay results reported in US20060058345A1, “Use of papaverine-like vasodilator and pharmaceutical composition” (Ursapharm Arzneimittel GmbH & Co KG, priority 2002, published 2006).
“And” between values parts separate entries of the source, which are not always exact repeats. Equal entries are not always repeated. Structures can show the parent of a compound that is named as a salt. One block for each molecule: values may come before it.

Legend:
[1] = Absorption of 14C-marked moxaverine into eye tissues and plasma after ocular or systemic application; conditions: for Amount of active substance in the moist tissue: single experiments
[2] = tested on: albino rabbits; assay: Compatibility study, topical application to the rabbit eye over 28 days (EU Directive 92/69/EEC, method B.5); format: in vivo; conditions: 50 μl aqueous solution pH 3.0-3.5, right eye, twelve albino rabbits
[3] = ocular application, after 30 minutes, Aqueous humor
[4] = ocular application, after 30 minutes, Lens
[5] = ocular application, after 30 minutes, Plasma
[6] = ocular application, after 120 minutes, Retina
[7] = systemic application (intravenous), after 30 minutes, Aqueous humor
[8] = systemic application (intravenous), after 30 minutes, Iris/ciliary process
[9] = systemic application (intravenous), after 30 minutes, Lens
[10] = systemic application (intravenous), after 30 minutes, Plasma
[11] = systemic application (intravenous), after 30 minutes, Retina
[12] = systemic application (intravenous), after 30 minutes, Vitreous humor
[13] = systemic application (intravenous), after 120 minutes, Aqueous humor
[14] = systemic application (intravenous), after 120 minutes, Conjunctiva
[15] = systemic application (intravenous), after 120 minutes, Iris/ciliary process
[16] = systemic application (intravenous), after 120 minutes, Lens
[17] = systemic application (intravenous), after 120 minutes, Plasma
[18] = systemic application (intravenous), after 120 minutes, Retina
[19] = systemic application (intravenous), after 120 minutes, Sclera
[20] = systemic application (intravenous), after 120 minutes, Vitreous humor

Factor by which concentration in the iris and the ciliary process is less with systemic than with topical application ([1]; 30 minutes): ~6
Factor by which concentration in the iris and the ciliary process is less with systemic than with topical application ([1]; 120 minutes): ~18
Concentration in the retina, systemic compared to topical administration ([1]; after 30 minutes): slightly above
Concentration in the conjunctiva and the cornea after 120 minutes compared to 30 minutes ([1]; ocular application): decreased
Concentration in the iris and the ciliary process after 120 minutes compared to 30 minutes ([1]; ocular application): almost doubled
Increase of concentration in the retina after 120 minutes compared to 30 minutes ([1]; ocular application): about 50%
Concentration in the iris and the ciliary process at 120 minutes as share of the concentration after 30 minutes ([1]; systemic application): about 63%
Factor of decrease of concentration in the retina from 30 to 120 minutes ([1]; systemic application): 1.6
Absorption by the eye after topical application to the surface ([1]; topical application): very well absorbed by the eye
Factor of increase of concentration in the iris and the ciliary process from 30 minutes to 120 minutes ([1]; topical application): ~2
Factor of increase of concentration in the retina from 30 to 120 minutes ([1]; topical application): 1.4
Compound: CCc1cc2cc(OC)c(OC)cc2c(Cc2ccccc2)n1 [moxaverine]
Amount of active substance in the moist tissue, Mean value [1, 3]: 1.9529E−07 mg of moxaverine/g of moist tissue
Amount of active substance in the moist tissue [1, 3]: 1.4923E−07 mg of moxaverine/g of moist tissue and 2.6321E−07 mg of moxaverine/g of moist tissue and 1.7533E−07 mg of moxaverine/g of moist tissue
Amount of active substance in the moist tissue, Mean value ([1]; ocular application, after 30 minutes, Conjunctiva): 6.1602E−04 mg of moxaverine/g of moist tissue
Amount of active substance in the moist tissue, Mean value ([1]; ocular application, after 30 minutes, Cornea): 1.8538E−03 mg of moxaverine/g of moist tissue
Amount of active substance in the moist tissue, Mean value ([1]; ocular application, after 30 minutes, Iris/ciliary process): 1.5028E−03 mg of moxaverine/g of moist tissue
Amount of active substance in the moist tissue, Mean value [1, 4]: 4.9582E−05 mg of moxaverine/g of moist tissue
Amount of active substance in the moist tissue [1, 4]: 4.6171E−05 mg of moxaverine/g of moist tissue and 6.1860E−05 mg of moxaverine/g of moist tissue and 4.0715E−05 mg of moxaverine/g of moist tissue
Amount of active substance in the moist tissue, Mean value [1, 5]: 2.0234E−05 mg of moxaverine/g of moist tissue
Amount of active substance in the moist tissue [1, 5]: 2.3741E−05 mg of moxaverine/g of moist tissue and 1.8259E−05 mg of moxaverine/g of moist tissue and 1.8702E−05 mg of moxaverine/g of moist tissue
Amount of active substance in the moist tissue, Mean value ([1]; ocular application, after 30 minutes, Retina): 1.0031E−04 mg of moxaverine/g of moist tissue
Amount of active substance in the moist tissue, Mean value ([1]; ocular application, after 30 minutes, Sclera): 1.0012E−04 mg of moxaverine/g of moist tissue
Amount of active substance in the moist tissue, Mean value ([1]; ocular application, after 30 minutes, Vitreous humor): 1.1544E−07 mg of moxaverine/g of moist tissue
Amount of active substance in the moist tissue, Mean value ([1]; ocular application, after 120 minutes, Aqueous humor): 9.3417E−08 mg of moxaverine/g of moist tissue
Amount of active substance in the moist tissue, Mean value ([1]; ocular application, after 120 minutes, Conjunctiva): 3.7275E−04 mg of moxaverine/g of moist tissue
Amount of active substance in the moist tissue, Mean value ([1]; ocular application, after 120 minutes, Cornea): 1.1057E−03 mg of moxaverine/g of moist tissue
Amount of active substance in the moist tissue, Mean value ([1]; ocular application, after 120 minutes, Iris/ciliary process): 2.9849E−03 mg of moxaverine/g of moist tissue
Amount of active substance in the moist tissue, Mean value ([1]; ocular application, after 120 minutes, Lens): 5.6780E−05 mg of moxaverine/g of moist tissue
Amount of active substance in the moist tissue, Mean value ([1]; ocular application, after 120 minutes, Plasma): 1.2891E−05 mg of moxaverine/g of moist tissue
Amount of active substance in the moist tissue, Mean value [1, 6]: 1.4397E−04 mg of moxaverine/g of moist tissue
Amount of active substance in the moist tissue [1, 6]: 1.8933E−04 mg of moxaverine/g of moist tissue and 1.4755E−04 mg of moxaverine/g of moist tissue and 9.5039E−05 mg of moxaverine/g of moist tissue
Amount of active substance in the moist tissue, Mean value ([1]; ocular application, after 120 minutes, Sclera): 1.0330E−04 mg of moxaverine/g of moist tissue
Amount of active substance in the moist tissue, Mean value ([1]; ocular application, after 120 minutes, Vitreous humor): 9.6118E−09 mg of moxaverine/g of moist tissue
Absorption and biological availability in the eye, topical compared to systemic application ([1]; same application amount): better absorbed by the eye with topical application and exhibits a markedly longer biological availability in the eye
Amount of active substance in the moist tissue, Mean value [1, 7]: 2.2632E−09 mg of moxaverine/g of moist tissue
Amount of active substance in the moist tissue [1, 7]: 2.0291E−09 mg of moxaverine/g of moist tissue and 2.4973E−09 mg of moxaverine/g of moist tissue
Amount of active substance in the moist tissue, Mean value ([1]; systemic application (intravenous), after 30 minutes, Conjunctiva): 2.4278E−05 mg of moxaverine/g of moist tissue
Amount of active substance in the moist tissue, Mean value ([1]; systemic application (intravenous), after 30 minutes, Cornea): 8.1549E−06 mg of moxaverine/g of moist tissue
Amount of active substance in the moist tissue, Mean value [1, 8]: 2.5186E−04 mg of moxaverine/g of moist tissue
Amount of active substance in the moist tissue [1, 8]: 2.2898E−04 mg of moxaverine/g of moist tissue and 2.7473E−04 mg of moxaverine/g of moist tissue
Amount of active substance in the moist tissue, Mean value [1, 9]: 1.2813E−06 mg of moxaverine/g of moist tissue
Amount of active substance in the moist tissue [1, 9]: 9.5659E−07 mg of moxaverine/g of moist tissue and 1.6061E−06 mg of moxaverine/g of moist tissue
Amount of active substance in the moist tissue, Mean value [1, 10]: 3.4421E−05 mg of moxaverine/g of moist tissue
Amount of active substance in the moist tissue [1, 10]: 2.8375E−05 mg of moxaverine/g of moist tissue and 4.9032E−05 mg of moxaverine/g of moist tissue and 2.5855E−05 mg of moxaverine/g of moist tissue
Amount of active substance in the moist tissue, Mean value [1, 11]: 1.3046E−04 mg of moxaverine/g of moist tissue
Amount of active substance in the moist tissue [1, 11]: 1.0666E−04 mg of moxaverine/g of moist tissue and 1.5425E−04 mg of moxaverine/g of moist tissue
Amount of active substance in the moist tissue, Mean value ([1]; systemic application (intravenous), after 30 minutes, Sclera): 3.3698E−05 mg of moxaverine/g of moist tissue
Amount of active substance in the moist tissue, Mean value [1, 12]: 2.0811E−09 mg of moxaverine/g of moist tissue
Amount of active substance in the moist tissue [1, 12]: 2.6534E−09 mg of moxaverine/g of moist tissue and 1.5088E−09 mg of moxaverine/g of moist tissue
Amount of active substance in the moist tissue, Mean value [1, 13]: 1.9944E−09 mg of moxaverine/g of moist tissue
Amount of active substance in the moist tissue [1, 13]: 2.3412E−09 mg of moxaverine/g of moist tissue and 1.8210E−09 mg of moxaverine/g of moist tissue
Amount of active substance in the moist tissue, Mean value [1, 14]: 2.2936E−05 mg of moxaverine/g of moist tissue
Amount of active substance in the moist tissue [1, 14]: 2.7539E−05 mg of moxaverine/g of moist tissue and 1.5261E−05 mg of moxaverine/g of moist tissue and 2.6009E−05 mg of moxaverine/g of moist tissue
Amount of active substance in the moist tissue, Mean value ([1]; systemic application (intravenous), after 120 minutes, Cornea): 7.6083E−06 mg of moxaverine/g of moist tissue
Amount of active substance in the moist tissue, Mean value [1, 15]: 1.5907E−04 mg of moxaverine/g of moist tissue
Amount of active substance in the moist tissue [1, 15]: 1.2211E−04 mg of moxaverine/g of moist tissue and 1.6708E−04 mg of moxaverine/g of moist tissue and 1.8802E−04 mg of moxaverine/g of moist tissue
Amount of active substance in the moist tissue, Mean value [1, 16]: 1.5477E−06 mg of moxaverine/g of moist tissue
Amount of active substance in the moist tissue [1, 16]: 1.3706E−06 mg of moxaverine/g of moist tissue and 2.0870E−06 mg of moxaverine/g of moist tissue and 1.1854E−06 mg of moxaverine/g of moist tissue
Amount of active substance in the moist tissue, Mean value [1, 17]: 2.2620E−05 mg of moxaverine/g of moist tissue
Amount of active substance in the moist tissue [1, 17]: 2.4420E−05 mg of moxaverine/g of moist tissue and 2.1190E−05 mg of moxaverine/g of moist tissue and 2.2250E−05 mg of moxaverine/g of moist tissue
Amount of active substance in the moist tissue, Mean value [1, 18]: 7.7330E−05 mg of moxaverine/g of moist tissue
Amount of active substance in the moist tissue [1, 18]: 9.5067E−05 mg of moxaverine/g of moist tissue and 8.3068E−05 mg of moxaverine/g of moist tissue and 5.3855E−05 mg of moxaverine/g of moist tissue
Amount of active substance in the moist tissue, Mean value [1, 19]: 1.3993E−05 mg of moxaverine/g of moist tissue
Amount of active substance in the moist tissue [1, 19]: 1.4230E−05 mg of moxaverine/g of moist tissue and 1.1476E−05 mg of moxaverine/g of moist tissue and 1.6272E−05 mg of moxaverine/g of moist tissue
Amount of active substance in the moist tissue, Mean value [1, 20]: 1.2851E−09 mg of moxaverine/g of moist tissue
Amount of active substance in the moist tissue [1, 20]: 1.5608E−09 mg of moxaverine/g of moist tissue and 9.6772E−10 mg of moxaverine/g of moist tissue and 1.3267E−09 mg of moxaverine/g of moist tissue

Compound: CCc1cc2cc(OC)c(OC)cc2c(Cc2ccccc2)n1 [moxaverine hydrochloride]
Eye reaction: changes to the iris, clouding of the cornea [2]: No changes to the iris or clouding of the cornea were observed
Eye reaction: swelling of the lids, reddening of the conjunctiva [2]: No rabbit exhibited swelling of the lids or any reddening of the conjunctiva
